Measurements taken from PMC5639694 (Journal of medicinal chemistry, 2017).
“Also recorded” adds a separate entry of the source. Square brackets hold non-standard residues; d marks the D form. Peptide text beside a SMILES is read from it. Dap = NC[C@H](N)C(=O)O

How the values were obtained:
mMC1R = mMC1R (Mus musculus, UniProt Q01727); assay: AlphaScreen cAMP agonist assay, HEK293 cells stably expressing mMC1R; details: for selectivity for the mMC1R over the mMC3R: agonist potency ratio; for mMC1R agonist activity/efficacy in words: full agonist = >90% maximal NDP-MSH stimulation
mMC5R = mMC5R (Mus musculus, UniProt P41149); assay: AlphaScreen cAMP agonist assay, HEK293 cells stably expressing mMC5R; details: for selectivity for the mMC5R over the mMC3R: agonist potency ratio; for mMC5R agonist activity/efficacy in words: concentrations up to 100 μM, full agonist = >90% maximal NDP-MSH stimulation
mMC3R = mMC3R (Mus musculus, UniProt P33033); assay: AlphaScreen cAMP agonist assay, HEK293 cells stably expressing mMC3R; details: for mMC3R agonist activity/efficacy in words: concentrations up to 100 μM, full agonist = >90% maximal NDP-MSH stimulation; for mMC3R partial agonist, percent maximal NDP stimulation: PA, relative to maximal NDP-MSH response
[1] = molecular target: mouse melanocortin 5 receptor (mouse) (UniProt P41149)
mMC4R = mMC4R (Mus musculus, UniProt P56450); assay: AlphaScreen cAMP agonist assay, HEK293 cells stably expressing mMC4R; details: for mMC4R agonist activity/efficacy in words: concentrations up to 100 μM, full agonist = >90% maximal NDP-MSH stimulation; for selectivity for the mMC4R over the mMC3R: agonist potency ratio
[2] = molecular target: mouse melanocortin 1 receptor (mouse) (UniProt Q01727)
[3] = molecular target: mouse melanocortin 4 receptor (mouse) (UniProt P56450)
Sequence of mouse melanocortin 4 receptor (mouse) (P56450 whole entry): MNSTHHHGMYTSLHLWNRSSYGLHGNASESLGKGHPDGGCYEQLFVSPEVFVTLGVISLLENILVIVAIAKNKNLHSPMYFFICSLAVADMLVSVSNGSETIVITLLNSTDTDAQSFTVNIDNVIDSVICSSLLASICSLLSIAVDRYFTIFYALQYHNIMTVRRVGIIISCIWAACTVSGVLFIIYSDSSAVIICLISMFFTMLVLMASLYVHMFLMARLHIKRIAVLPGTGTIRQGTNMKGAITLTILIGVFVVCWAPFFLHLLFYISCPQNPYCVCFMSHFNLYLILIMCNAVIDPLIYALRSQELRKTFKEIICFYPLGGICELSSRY

Sequence of mouse melanocortin 5 receptor (mouse) (P41149 whole entry): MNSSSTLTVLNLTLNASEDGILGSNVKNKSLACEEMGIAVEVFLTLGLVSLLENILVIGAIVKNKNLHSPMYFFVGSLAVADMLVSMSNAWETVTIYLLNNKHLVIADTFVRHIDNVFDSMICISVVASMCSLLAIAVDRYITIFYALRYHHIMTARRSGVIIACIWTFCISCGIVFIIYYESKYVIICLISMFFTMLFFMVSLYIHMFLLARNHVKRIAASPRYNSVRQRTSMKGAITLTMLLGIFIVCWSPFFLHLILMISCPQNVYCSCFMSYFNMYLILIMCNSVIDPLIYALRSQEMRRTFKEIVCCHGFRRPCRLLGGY
Sequence of mMC5R (P41149 whole entry): as above
Sequence of mouse melanocortin 1 receptor (mouse) (Q01727 whole entry): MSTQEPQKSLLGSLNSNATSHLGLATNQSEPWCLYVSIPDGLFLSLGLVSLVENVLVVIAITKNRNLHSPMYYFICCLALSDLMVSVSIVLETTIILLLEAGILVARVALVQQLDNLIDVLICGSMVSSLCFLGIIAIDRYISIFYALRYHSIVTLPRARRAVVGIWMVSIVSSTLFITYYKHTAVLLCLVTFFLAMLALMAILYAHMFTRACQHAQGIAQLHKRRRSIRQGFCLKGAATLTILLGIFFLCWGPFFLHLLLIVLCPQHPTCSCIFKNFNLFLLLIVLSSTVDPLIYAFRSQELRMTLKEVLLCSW
Sequence of mMC1R (Q01727 whole entry): as above
Sequence of mMC4R (P56450 whole entry): as the sequence (P56450 whole entry) above
Sequence of mMC3R (P33033 whole entry): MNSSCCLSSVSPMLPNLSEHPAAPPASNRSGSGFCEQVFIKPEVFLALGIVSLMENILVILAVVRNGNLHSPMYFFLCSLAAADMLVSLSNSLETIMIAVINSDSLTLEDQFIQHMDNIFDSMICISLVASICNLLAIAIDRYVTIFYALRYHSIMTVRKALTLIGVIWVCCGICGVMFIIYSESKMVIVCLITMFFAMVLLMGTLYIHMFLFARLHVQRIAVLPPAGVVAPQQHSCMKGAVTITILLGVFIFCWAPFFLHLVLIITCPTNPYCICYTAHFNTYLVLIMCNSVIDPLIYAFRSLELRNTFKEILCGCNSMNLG

C[C@@H]1NC(=O)[C@H](CC(N)=O)NC(=O)[C@H](Cc2c[nH]c3ccccc23)NC(=O)[C@H](CCCNC(=N)N)NC(=O)[C@@H](Cc2ccccc2)NC(=O)[C@@H]2CCCN2C(=O)[C@H]2CCCN2C1=O [Peptide 9, c[Pro-DPhe-Arg-Trp-Asn-Ala-DPro]] (cyclo(P[dF]RWNA[dP]))
selectivity for the mMC1R over the mMC3R (mMC1R): > 100 fold | mMC1R agonist activity/efficacy in words (mMC1R): full mMC1R agonists | selectivity for the mMC5R over the mMC3R (mMC5R): > 1000 fold | mMC3R agonist activity/efficacy in words (mMC3R): partially stimulated

cyclo(P[dF]RW[Dap]AF[dP])
agonist EC50 (cAMP AlphaScreen, HEK293 cells stably expressing the receptor) [1]: 46 nM

C[C@@H]1NC(=O)[C@H](CC(N)=O)NC(=O)[C@H](Cc2c[nH]c3ccccc23)NC(=O)[C@H](CCCNC(=N)N)NC(=O)[C@@H](Cc2ccccc2)NC(=O)[C@H](Cc2c[nH]cn2)NC(=O)[C@@H]2CCCN2C(=O)[C@H]2CCCN2C(=O)[C@H](Cc2ccccc2)NC1=O [Peptide 1, c[Pro-His-DPhe-Arg-Trp-Asn-Ala-Phe-DPro]] (cyclo(H[dF]RWNAF[dP]P))
mMC4R agonist activity/efficacy in words (mMC4R): full agonists

C[C@@H]1NC(=O)[C@H](CN)NC(=O)[C@H](Cc2c[nH]c3ccccc23)NC(=O)[C@H](CCCNC(=N)N)NC(=O)[C@@H](Cc2ccccc2)NC(=O)[C@H](Cc2c[nH]cn2)NC(=O)[C@@H]2CCCN2C(=O)[C@H]2CCCN2C1=O [Peptide 5, c[Pro-His-DPhe-Arg-Trp-Dap-Ala-DPro]] (cyclo(H[dF]RW[Dap]A[dP]P))
mMC4R agonist activity/efficacy in words (mMC4R): fully stimulate; also recorded: full agonists | selectivity for the mMC5R over the mMC3R (mMC5R): > 100 fold

cyclo(PH[dF]RW[Dap][dP])
agonist EC50 (cAMP AlphaScreen, HEK293 cells stably expressing the receptor) [2]: 460 nM | agonist EC50 (cAMP AlphaScreen, HEK293 cells stably expressing the receptor) [1]: 330 nM | agonist EC50 (cAMP AlphaScreen, HEK293 cells stably expressing the receptor) [3]: 950 nM

N=C(N)NCCC[C@@H]1NC(=O)[C@@H](Cc2ccccc2)NC(=O)[C@@H]2CCCN2C(=O)[C@H]2CCCN2C(=O)[C@H](CN)NC(=O)[C@H](Cc2c[nH]c3ccccc23)NC1=O [Peptide 13, c[Pro-DPhe-Arg-Trp-Dap-DPro]] (cyclo(P[dF]RW[Dap][dP]))
mMC4R agonist activity/efficacy in words (mMC4R): partially stimulated | mMC5R agonist activity/efficacy in words (mMC5R): no observable activity; also recorded: unable to stimulate; also recorded: no agonist activity | mMC3R agonist activity/efficacy in words (mMC3R): no observable activity; also recorded: did not possess agonist activity; also recorded: no agonist activity

cyclo(PH[dF]RW[Dap]A[dP])
agonist EC50 (cAMP AlphaScreen, HEK293 cells stably expressing the receptor) [2]: 1.1 nM | agonist EC50 (cAMP AlphaScreen, HEK293 cells stably expressing the receptor) [3]: 1.6 nM

C[C@@H]1NC(=O)[C@H](CN)NC(=O)[C@H](Cc2c[nH]c3ccccc23)NC(=O)[C@H](CCCNC(=N)N)NC(=O)[C@@H](Cc2ccccc2)NC(=O)[C@H](Cc2c[nH]cn2)NC(=O)[C@@H]2CCCN2C(=O)[C@H]2CCCN2C(=O)[C@H](Cc2ccccc2)NC1=O [Peptide 4, c[Pro-His-DPhe-Arg-Trp-Dap-Ala-Phe-DPro]] (cyclo(PH[dF]RW[Dap]AF[dP]))
mMC1R agonist activity/efficacy in words (mMC1R): full agonist | decreased agonist potency at mMC1R relative to 1 (mMC1R): 70 fold | mMC4R partial agonist, percent maximal NDP stimulation (mMC4R; PA, relative to maximal NDP-MSH response): 70% | mMC4R agonist activity/efficacy in words (mMC4R): partial agonist | mMC3R agonist activity/efficacy in words (mMC3R): full agonist

N=C(N)NCCC[C@@H]1NC(=O)[C@@H](Cc2ccccc2)NC(=O)[C@H](Cc2c[nH]cn2)NC(=O)[C@@H]2CCCN2C(=O)[C@H]2CCCN2C(=O)[C@H](Cc2c[nH]c3ccccc23)NC1=O [Peptide 7, c[Pro-His-DPhe-Arg-Trp-DPro]] (cyclo(PH[dF]RW[dP]))
mMC3R agonist activity/efficacy in words (mMC3R): partially stimulated

N=C(N)NCCC[C@@H]1NC(=O)[C@@H](Cc2ccccc2)NC(=O)[C@@H]2CCCN2C(=O)[C@H]2CCCN2C(=O)[C@H](CC(N)=O)NC(=O)[C@H](Cc2c[nH]c3ccccc23)NC1=O [Peptide 10, c[Pro-DPhe-Arg-Trp-Asn-DPro]] (cyclo(P[dF]RWN[dP]))
mMC5R agonist activity/efficacy in words (mMC5R): partially stimulated | mMC3R agonist activity/efficacy in words (mMC3R): no agonist activity; also recorded: did not possess agonist activity

C[C@@H]1NC(=O)[C@H](CN)NC(=O)[C@H](Cc2c[nH]c3ccccc23)NC(=O)[C@H](CCCNC(=N)N)NC(=O)[C@@H](Cc2ccccc2)NC(=O)[C@@H]2CCCN2C(=O)[C@H]2CCCN2C(=O)[C@H](Cc2ccccc2)NC1=O [Peptide 11, c[Pro-DPhe-Arg-Trp-Dap-Ala-Phe-DPro]] (cyclo(P[dF]RW[Dap]AF[dP]))
mMC1R agonist activity/efficacy in words (mMC1R): partial agonist | mMC4R agonist activity/efficacy in words (mMC4R): full agonist efficacy | mMC5R agonist activity/efficacy in words (mMC5R): full agonist efficacy | mMC3R agonist activity/efficacy in words (mMC3R): partial agonist

C[C@@H]1NC(=O)[C@H](CC(N)=O)NC(=O)[C@H](Cc2c[nH]c3ccccc23)NC(=O)[C@H](CCCNC(=N)N)NC(=O)[C@@H](Cc2ccccc2)NC(=O)[C@H](Cc2c[nH]cn2)NC(=O)[C@@H]2CCCN2C(=O)[C@H]2CCCN2C1=O [Peptide 2, c[Pro-His-DPhe-Arg-Trp-Asn-Ala-DPro]] (cyclo(PH[dF]RWNA[dP]))
decreased agonist potency at mMC1R relative to 1 (mMC1R): 34 fold | decreased agonist potency at mMC4R relative to 1 (mMC4R): 21 fold | decreased agonist potency at mMC5R relative to 1 (mMC5R): 5 fold | mMC3R partial agonist, percent maximal NDP stimulation (mMC3R): 85%

N=C(N)NCCC[C@@H]1NC(=O)[C@@H](Cc2ccccc2)NC(=O)[C@H](Cc2c[nH]cn2)NC(=O)[C@@H]2CCCN2C(=O)[C@H]2CCCN2C(=O)[C@H](CN)NC(=O)[C@H](Cc2c[nH]c3ccccc23)NC1=O [Peptide 6, c[Pro-His-DPhe-Arg-Trp-Dap-DPro]] (cyclo(PH[dF]RW[Dap][dP]))
selectivity for the mMC1R over the mMC3R (mMC1R): > 100 fold | decreased agonist potency at mMC1R relative to 5 (mMC1R; relative to 5): 420 fold | decreased agonist potency at mMC4R relative to 5 (mMC4R; relative to 5): 590 fold | selectivity for the mMC5R over the mMC3R (mMC5R): > 100 fold | decreased agonist potency at mMC5R relative to 5 (mMC5R; relative to 5): 1,100 fold | mMC3R agonist activity/efficacy in words (mMC3R): partially stimulated

cyclo(P[dF]RW[Dap]A[dP])
agonist EC50 (cAMP AlphaScreen, HEK293 cells stably expressing the receptor) [1]: 48 nM | agonist EC50 (cAMP AlphaScreen, HEK293 cells stably expressing the receptor) [3]: 150 nM

N=C(N)NCCC[C@@H]1NC(=O)[C@@H](Cc2ccccc2)NC(=O)[C@H](Cc2c[nH]cn2)NC(=O)[C@@H]2CCCN2C(=O)[C@H]2CCCN2C(=O)[C@H](CC(N)=O)NC(=O)[C@H](Cc2c[nH]c3ccccc23)NC1=O [Peptide 3, c[Pro-His-DPhe-Arg-Trp-Asn-DPro]] (cyclo(PH[dF]RWN[dP]))
decreased agonist potency at mMC1R relative to 1 (mMC1R): 140 fold | decreased agonist potency at mMC4R relative to 1 (mMC4R): 120 fold | decreased agonist potency at mMC5R relative to 1 (mMC5R): 37 fold | mMC3R partial agonist, percent maximal NDP stimulation (mMC3R): 65%

C[C@@H]1NC(=O)[C@H](CN)NC(=O)[C@H](Cc2c[nH]c3ccccc23)NC(=O)[C@H](CCCNC(=N)N)NC(=O)[C@@H](Cc2ccccc2)NC(=O)[C@@H]2CCCN2C(=O)[C@H]2CCCN2C1=O [Peptide 12, c[Pro-DPhe-Arg-Trp-Dap-Ala-DPro]] (cyclo(P[dF]RW[Dap]A[dP]))
mMC1R agonist activity/efficacy in words (mMC1R): full agonist efficacy; also recorded: full mMC1R agonists | selectivity for the mMC4R over the mMC3R (mMC4R): > 300 fold | selectivity for the mMC5R over the mMC3R (mMC5R): > 1000 fold | mMC3R agonist activity/efficacy in words (mMC3R): partially stimulated

C[C@@H]1NC(=O)[C@H](CC(N)=O)NC(=O)[C@H](Cc2c[nH]c3ccccc23)NC(=O)[C@H](CCCNC(=N)N)NC(=O)[C@@H](Cc2ccccc2)NC(=O)[C@@H]2CCCN2C(=O)[C@H]2CCCN2C(=O)[C@H](Cc2ccccc2)NC1=O [Peptide 8, c[Pro-DPhe-Arg-Trp-Asn-Ala-Phe-DPro]] (cyclo(P[dF]RWNAF[dP]))
selectivity for the mMC1R over the mMC3R (mMC1R): > 100 fold | mMC1R agonist activity/efficacy in words (mMC1R): full mMC1R agonists | decreased agonist potency at mMC1R relative to 1 (mMC1R): 1140 fold | selectivity for the mMC4R over the mMC3R (mMC4R): > 300 fold | decreased agonist potency at mMC4R relative to 1 (mMC4R): 90 fold | selectivity for the mMC5R over the mMC3R (mMC5R): > 1000 fold | decreased agonist potency at mMC5R relative to 1 (mMC5R): 90 fold | mMC3R agonist activity/efficacy in words (mMC3R): partially stimulated

B1: c[Pro-DPhe-Arg-Trp-Asn-Ala-Phe-DPro] (peptide)
peptide: cyclo(P[dF]RWNAF[dP])
SMILES: C[C@@H]1NC(=O)[C@H](CC(N)=O)NC(=O)[C@H](Cc2c[nH]c3ccccc23)NC(=O)[C@H](CCCNC(=N)N)NC(=O)[C@@H](Cc2ccccc2)NC(=O)[C@@H]2CCCN2C(=O)[C@H]2CCCN2C(=O)[C@H](Cc2ccccc2)NC1=O
agonist EC50 (cAMP AlphaScreen, HEK293 cells stably expressing the receptor) [3]: 130 nM

B2: c[Pro-DPhe-Arg-Trp-Asn-Ala-DPro] (peptide)
peptide: cyclo(P[dF]RWNA[dP])
SMILES: C[C@@H]1NC(=O)[C@H](CC(N)=O)NC(=O)[C@H](Cc2c[nH]c3ccccc23)NC(=O)[C@H](CCCNC(=N)N)NC(=O)[C@@H](Cc2ccccc2)NC(=O)[C@@H]2CCCN2C(=O)[C@H]2CCCN2C1=O
agonist EC50 (cAMP AlphaScreen, HEK293 cells stably expressing the receptor) [3]: 420 nM

B3: c[Pro-DPhe-Arg-Trp-DPro] (peptide)
peptide: cyclo(P[dF]RW[dP])
SMILES: N=C(N)NCCC[C@@H]1NC(=O)[C@@H](Cc2ccccc2)NC(=O)[C@@H]2CCCN2C(=O)[C@H]2CCCN2C(=O)[C@H](Cc2c[nH]c3ccccc23)NC1=O
agonist EC50 (cAMP AlphaScreen, HEK293 cells stably expressing the receptor) [2]: 1800 nM

B4: c[Pro-His-DPhe-Arg-Trp-Asn-DPro] (peptide)
peptide: cyclo(PH[dF]RWN[dP])
agonist EC50 (cAMP AlphaScreen, HEK293 cells stably expressing the receptor) [1]: 16.8 nM | agonist EC50 (cAMP AlphaScreen, HEK293 cells stably expressing the receptor) [3]: 170 nM
